Columns and labels:
Type in all cases: cell-based
BaF3_EGFRWT cells = BaF3_EGFRWT cells (Homo sapiens, UniProt P00533); test: Cell growth inhibition assay (CellTiterGlo), BaF3_EGFRWT; conditions: 3-day treatment, CellTiterGlo, read-out: Cell growth inhibition activity, EGFR WT
BaF3_HER2YVMA cells = BaF3_HER2YVMA cells (Homo sapiens, UniProt P04626, DUP772-775, cells depend on it); test: Cell growth inhibition assay (CellTiterGlo), BaF3_HER2YVMA; conditions: 3-day treatment, CellTiterGlo, read-out: Cell growth inhibition activity, HER2 - YVMA
Chain of BaF3_HER2YVMA cells (P04626 with tags, fused parts or gaps DUP772-775): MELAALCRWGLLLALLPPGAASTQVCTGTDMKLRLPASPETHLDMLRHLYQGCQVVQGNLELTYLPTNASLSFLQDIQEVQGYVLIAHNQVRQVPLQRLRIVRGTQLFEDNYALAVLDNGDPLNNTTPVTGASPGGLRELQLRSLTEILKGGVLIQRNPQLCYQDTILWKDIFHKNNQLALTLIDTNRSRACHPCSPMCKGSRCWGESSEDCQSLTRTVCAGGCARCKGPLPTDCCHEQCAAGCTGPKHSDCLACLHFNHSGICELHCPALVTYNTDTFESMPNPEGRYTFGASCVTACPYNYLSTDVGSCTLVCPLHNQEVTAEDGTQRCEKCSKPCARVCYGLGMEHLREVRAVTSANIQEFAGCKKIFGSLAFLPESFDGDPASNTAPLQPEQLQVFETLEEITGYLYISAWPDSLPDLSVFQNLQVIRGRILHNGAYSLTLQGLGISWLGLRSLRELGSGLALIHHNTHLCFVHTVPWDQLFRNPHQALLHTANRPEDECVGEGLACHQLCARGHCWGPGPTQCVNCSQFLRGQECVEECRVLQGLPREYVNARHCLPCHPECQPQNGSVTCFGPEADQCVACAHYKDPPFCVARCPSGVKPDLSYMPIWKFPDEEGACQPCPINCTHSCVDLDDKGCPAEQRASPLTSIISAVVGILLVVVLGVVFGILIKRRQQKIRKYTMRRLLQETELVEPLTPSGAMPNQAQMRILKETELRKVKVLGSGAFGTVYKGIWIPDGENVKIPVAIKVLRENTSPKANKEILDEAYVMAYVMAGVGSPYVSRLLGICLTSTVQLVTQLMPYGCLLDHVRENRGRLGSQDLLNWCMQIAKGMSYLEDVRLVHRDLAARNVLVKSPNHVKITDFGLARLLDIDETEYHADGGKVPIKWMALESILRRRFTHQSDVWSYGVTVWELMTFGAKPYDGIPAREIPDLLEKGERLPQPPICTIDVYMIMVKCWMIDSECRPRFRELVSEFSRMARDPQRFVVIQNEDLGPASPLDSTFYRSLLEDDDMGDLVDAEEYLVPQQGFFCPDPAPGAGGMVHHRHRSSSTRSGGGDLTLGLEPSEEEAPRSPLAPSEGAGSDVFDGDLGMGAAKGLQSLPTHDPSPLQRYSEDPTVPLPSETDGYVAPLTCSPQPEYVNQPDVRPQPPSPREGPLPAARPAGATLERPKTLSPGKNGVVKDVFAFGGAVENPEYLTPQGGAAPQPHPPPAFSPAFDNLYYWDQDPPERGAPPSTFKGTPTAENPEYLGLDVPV

BaF3_HER2WT cells = BaF3_HER2WT cells (Homo sapiens, UniProt P04626); test: Cell growth inhibition assay (CellTiterGlo), BaF3_HER2WT; conditions: 3-day treatment, CellTiterGlo, read-out: Cell growth inhibition activity, HER2 WT
Chain of BaF3_HER2WT cells (P04626 whole entry, change not shown): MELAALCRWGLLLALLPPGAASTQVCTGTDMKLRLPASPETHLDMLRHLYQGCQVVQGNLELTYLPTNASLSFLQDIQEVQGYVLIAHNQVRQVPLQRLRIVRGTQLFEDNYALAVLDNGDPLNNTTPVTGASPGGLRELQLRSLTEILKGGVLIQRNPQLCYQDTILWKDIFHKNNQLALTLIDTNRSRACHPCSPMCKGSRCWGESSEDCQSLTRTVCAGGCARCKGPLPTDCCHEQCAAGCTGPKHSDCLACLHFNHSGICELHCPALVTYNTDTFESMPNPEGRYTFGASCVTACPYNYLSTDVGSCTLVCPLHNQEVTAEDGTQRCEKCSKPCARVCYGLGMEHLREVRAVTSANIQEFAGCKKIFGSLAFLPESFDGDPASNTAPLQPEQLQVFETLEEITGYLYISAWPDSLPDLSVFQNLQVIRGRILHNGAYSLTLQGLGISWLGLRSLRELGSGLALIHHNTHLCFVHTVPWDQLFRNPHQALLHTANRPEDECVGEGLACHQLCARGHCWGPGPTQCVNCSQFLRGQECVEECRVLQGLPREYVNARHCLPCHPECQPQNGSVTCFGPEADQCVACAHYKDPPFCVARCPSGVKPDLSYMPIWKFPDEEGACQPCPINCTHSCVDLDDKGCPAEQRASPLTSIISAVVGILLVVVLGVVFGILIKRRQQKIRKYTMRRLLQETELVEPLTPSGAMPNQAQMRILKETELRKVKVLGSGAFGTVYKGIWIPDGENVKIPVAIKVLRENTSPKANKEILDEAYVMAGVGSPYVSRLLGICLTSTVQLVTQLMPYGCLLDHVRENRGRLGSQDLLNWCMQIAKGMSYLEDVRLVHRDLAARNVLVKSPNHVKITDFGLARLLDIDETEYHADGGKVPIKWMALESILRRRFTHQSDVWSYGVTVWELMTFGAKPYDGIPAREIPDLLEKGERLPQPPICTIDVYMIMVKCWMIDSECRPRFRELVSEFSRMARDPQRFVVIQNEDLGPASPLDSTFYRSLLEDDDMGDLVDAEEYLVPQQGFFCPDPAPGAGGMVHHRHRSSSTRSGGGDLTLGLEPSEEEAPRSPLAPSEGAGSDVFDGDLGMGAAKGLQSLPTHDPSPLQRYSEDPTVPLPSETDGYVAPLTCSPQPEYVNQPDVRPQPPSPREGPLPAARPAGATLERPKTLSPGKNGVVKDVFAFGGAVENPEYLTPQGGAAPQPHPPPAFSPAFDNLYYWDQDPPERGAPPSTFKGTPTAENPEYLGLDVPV

Chain of BaF3_EGFRWT cells (P00533 whole entry, change not shown): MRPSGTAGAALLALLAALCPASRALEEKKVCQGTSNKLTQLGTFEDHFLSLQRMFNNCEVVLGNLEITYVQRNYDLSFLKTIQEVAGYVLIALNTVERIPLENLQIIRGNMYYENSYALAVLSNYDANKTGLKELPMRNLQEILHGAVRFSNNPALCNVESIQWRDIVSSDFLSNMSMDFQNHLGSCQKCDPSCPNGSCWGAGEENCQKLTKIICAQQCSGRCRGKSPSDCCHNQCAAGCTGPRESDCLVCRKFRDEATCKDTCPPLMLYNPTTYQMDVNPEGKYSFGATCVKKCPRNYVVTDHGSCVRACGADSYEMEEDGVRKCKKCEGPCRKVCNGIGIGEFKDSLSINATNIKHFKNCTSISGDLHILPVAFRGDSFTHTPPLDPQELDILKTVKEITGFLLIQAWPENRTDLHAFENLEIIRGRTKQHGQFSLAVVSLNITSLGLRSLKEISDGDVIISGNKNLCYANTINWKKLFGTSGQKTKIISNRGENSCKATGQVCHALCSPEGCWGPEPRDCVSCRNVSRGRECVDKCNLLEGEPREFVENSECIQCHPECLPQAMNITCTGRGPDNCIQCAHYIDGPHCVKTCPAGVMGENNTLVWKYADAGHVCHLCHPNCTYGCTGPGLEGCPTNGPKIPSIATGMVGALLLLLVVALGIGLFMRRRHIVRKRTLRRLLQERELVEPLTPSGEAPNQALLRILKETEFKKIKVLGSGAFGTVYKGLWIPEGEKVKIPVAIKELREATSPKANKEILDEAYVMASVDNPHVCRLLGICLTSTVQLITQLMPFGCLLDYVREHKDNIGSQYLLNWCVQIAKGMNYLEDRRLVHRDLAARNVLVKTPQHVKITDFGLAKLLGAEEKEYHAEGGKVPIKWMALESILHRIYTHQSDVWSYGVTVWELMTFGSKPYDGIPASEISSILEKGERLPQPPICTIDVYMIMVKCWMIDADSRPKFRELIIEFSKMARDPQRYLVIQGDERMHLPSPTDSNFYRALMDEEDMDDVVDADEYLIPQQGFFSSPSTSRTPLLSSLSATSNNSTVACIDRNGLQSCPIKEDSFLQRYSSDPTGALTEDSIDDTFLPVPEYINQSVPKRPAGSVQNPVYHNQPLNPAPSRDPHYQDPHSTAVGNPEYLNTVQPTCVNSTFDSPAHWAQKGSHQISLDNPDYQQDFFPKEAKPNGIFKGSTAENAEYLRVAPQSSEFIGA

SMILES | GI50 (BaF3_EGFRWT cells) [nM] | GI50 (BaF3_HER2YVMA cells) [nM] | GI50 (BaF3_HER2WT cells) [nM]
C=CC(=O)N1C[C@H]2C[C@@H]1C[C@@H]2c1ccn2ncnc(Nc3ccc(Oc4ccn5ncnc5c4)c(C)c3)c12 [Example 141, 1-[(1S,4S,5S)-5-{4-[(3-methyl-4-{[1,2,4]triazolo[1,5-a]pyridin-7-yloxy}phenyl)amino]pyrrolo[2,1-f][1,2,4]triazin-5-yl}-2-azabicyclo[2.2.1]heptan-2-yl]prop-2-en-1-one] | 1500 to 5000 | 500 to 1500 | 200 to 500
Cc1cc(Nc2ncnn3ccc(C4CCN(C(=O)/C=C/C(=O)O)CC4)c23)ccc1Oc1ccn2ncnc2c1 [Example 142, (E)-4-(4-(4-((4-([1,2,4]triazolo[1,5-a]pyridin-7-yloxy)-3-methylphenyl)amino)pyrrolo[2,1-f][1,2,4]triazin-5-yl)piperidin-1-yl)-4-oxobut-2-enoic acid] | 1500 to 5000 | 1500 to 5000 | 1500 to 5000
Cc1cc(Nc2ncnn3ccc(C4CCN(C(=O)/C=C/CN)CC4)c23)ccc1Oc1ccn2ncnc2c1 [Example 150, (E)-1-(4-(4-((4-([1,2,4]triazolo[1,5-a]pyridin-7-yloxy)-3-methylphenyl)amino)pyrrolo[2,1-f][1,2,4]triazin-5-yl)piperidin-1-yl)-4-aminobut-2-en-1-one] | 1500 to 5000 | 1500 to 5000 | 500 to 1500
CNC/C=C/C(=O)N1CC(c2ccn3ncnc(Nc4ccc(Oc5ccn6ncnc6c5)c(C)c4)c23)C1 [Example 151, (E)-1-(3-(4-((4-([1,2,4]triazolo[1,5-a]pyridin-7-yloxy)-3-methylphenyl)amino)pyrrolo[2,1-f][1,2,4]triazin-5-yl)azetidin-1-yl)-4-(methylamino)but-2-en-1-one] | 1500 to 5000 | < 200 | < 200
Cc1cc(Nc2ncnn3cc(F)c(C4CCN(C(=O)/C=C/CN(C)C)CC4)c23)ccc1Oc1ccn2ncnc2c1 [Example 152, (E)-1-(4-(4-((4-([1,2,4]triazolo[1,5-a]pyridin-7-yloxy)-3-methylphenyl)amino)-6-fluoropyrrolo[2,1-f][1,2,4]triazin-5-yl)piperidin-1-yl)-4-(dimethylamino)but-2-en-1-one] | 1500 to 5000 | < 200 | < 200
CNC/C=C/C(=O)N1CC(c2ccn3ncnc(Nc4ccc(Oc5ccc6c(c5)ncn6C)c(C)c4)c23)C1 [Example 153, (E)-1-(3-(4-((3-methyl-4-((1-methyl-1H-benzo[d]imidazol-5-yl)oxy)phenyl)amino)pyrrolo[2,1-f][1,2,4]triazin-5-yl)azetidin-1-yl)-4-(methylamino)but-2-en-1-one] | 1500 to 5000 | 1500 to 5000 | 1500 to 5000
Cc1cc(Nc2ncnn3ccc(C4CCN(C(=O)/C=C/CO)CC4)c23)ccc1Oc1ccn2ncnc2c1 [Example 154, (E)-1-(4-(4-((4-([1,2,4]triazolo[1,5-a]pyridin-7-yloxy)-3-methylphenyl)amino)pyrrolo[2,1-f][1,2,4]triazin-5-yl)piperidin-1-yl)-4-hydroxybut-2-en-1-one] | 1500 to 5000 | < 200 | < 200
Cc1cc(Nc2ncnn3ccc(C4CN(C(=O)/C=C/CN(C)C)C4)c23)ccc1Oc1ccn2ccnc2c1 [Example 157, (E)-4-(dimethylamino)-1-(3-(4-((4-(imidazo[1,2-a]pyridin-7-yloxy)-3-methylphenyl)amino)pyrrolo[2,1-f][1,2,4]triazin-5-yl)azetidin-1-yl)but-2-en-1-one] | 1500 to 5000 | < 200 | < 200
Cc1cc(Nc2ncnn3ccc(C4CN(C(=O)/C=C/CN(C)C)C4)c23)ccc1Oc1cc2ncnn2cn1 [Example 158, (E)-1-(3-(4-((4-([1,2,4]triazolo[1,5-c]pyrimidin-7-yloxy)-3-methylphenyl)amino)pyrrolo[2,1-f][1,2,4]triazin-5-yl)azetidin-1-yl)-4-(dimethylamino)but-2-en-1-one] | 500 to 1500 | < 200 | < 200
Cc1cc(Nc2ncnn3ccc(C4CN(C(=O)/C=C/C56CCCN5CCC6)C4)c23)ccc1Oc1ccn2ncnc2c1 [Example 159, (E)-1-(3-(4-((4-([1,2,4]triazolo[1,5-a]pyridin-7-yloxy)-3-methylphenyl)amino)pyrrolo[2,1-f][1,2,4]triazin-5-yl)azetidin-1-yl)-3-(tetrahydro-1H-pyrrolizin-7a(5H)-yl)prop-2-en-1-one] | 1500 to 5000 | < 200 | < 200
Cc1cc(Nc2ncnn3ccc(C4CN(C(=O)/C=C\C56CCCN5CCC6)C4)c23)ccc1Oc1ccn2ncnc2c1 [Example 160, (Z)-1-(3-(4-((4-([1,2,4]triazolo[1,5-a]pyridin-7-yloxy)-3-methylphenyl)amino)pyrrolo[2,1-f][1,2,4]triazin-5-yl)azetidin-1-yl)-3-(tetrahydro-1H-pyrrolizin-7a(5H)-yl)prop-2-en-1-one] | 1500 to 5000 | < 200 | < 200
Cc1cc(Nc2ncnn3ccc(C4CN(C(=O)/C=C/CN5CC(F)C5)C4)c23)ccc1Oc1ccc2c(c1)ncn2C [Example 161, (E)-4-(3-fluoroazetidin-1-yl)-1-(3-(4-((3-methyl-4-((1-methyl-1H-benzo[d]imidazol-5-yl)oxy)phenyl)amino)pyrrolo[2,1-f][1,2,4]triazin-5-yl)azetidin-1-yl)but-2-en-1-one] | 1500 to 5000 | < 200 | < 200
Cc1cc(Nc2ncnn3ccc(C4CCN(C(=O)/C=C/CN5CC(F)C5)CC4)c23)ccc1Oc1ccc2c(c1)ncn2C [Example 162, (E)-4-(3-fluoroazetidin-1-yl)-1-(4-(4-((3-methyl-4-((1-methyl-1H-benzo[d]imidazol-5-yl)oxy)phenyl)amino)pyrrolo[2,1-f][1,2,4]triazin-5-yl)piperidin-1-yl)but-2-en-1-one] | 1500 to 5000 | 500 to 1500 | 200 to 500
Cc1cc(Nc2ncnn3ccc(C4CCN(C(=O)/C=C/CN5CC(F)C5)CC4)c23)ccc1Oc1ccn2ncnc2c1 [Example 163, (E)-1-(4-(4-((4-([1,2,4]triazolo[1,5-a]pyridin-7-yloxy)-3-methylphenyl)amino)pyrrolo[2,1-f][1,2,4]triazin-5-yl)piperidin-1-yl)-4-(3-fluoroazetidin-1-yl)but-2-en-1-one] | 1500 to 5000 | < 200 | < 200
Cc1cc(Nc2ncnn3ccc(C4CCN(C(=O)/C=C/CN5CCC(F)C5)CC4)c23)ccc1Oc1ccn2ncnc2c1 (stereo not drawn) [Example 164, (E)-1-(4-(4-((4-([1,2,4]triazolo[1,5-a]pyridin-7-yloxy)-3-methylphenyl)amino)pyrrolo[2,1-f][1,2,4]triazin-5-yl)piperidin-1-yl)-4-(3-fluoropyrrolidin-1-yl)but-2-en-1-one] | 1500 to 5000 | < 200 | < 200
CO[C@H]1CN(C/C=C/C(=O)N2CC(c3ccn4ncnc(Nc5ccc(Oc6ccc7c(c6)ncn7C)c(C)c5)c34)C2)C[C@H]1OC [Example 165, (E)-4-((3R,4S)-3,4-dimethoxypyrrolidin-1-yl)-1-(3-(4-((3-methyl-4-((1-methyl-1H-benzo[d]imidazol-5-yl)oxy)phenyl)amino)pyrrolo[2,1-f][1,2,4]triazin-5-yl)azetidin-1-yl)but-2-en-1-one] | 1500 to 5000 | < 200 | < 200

Reference: patent US20240132521A1, “COMPOUNDS AND METHODS FOR MODULATING HER2” (Iambic Therapeutics, Inc., priority 2022, published 2024)
